Results: US9458141B2, “Low molecular weight thyroid stimulating hormone receptor (TSHR) agonists” (The United States of America, as represented by the …, priority 2008, dated 2016)

Target: T1, human TSHR (Homo sapiens, UniProt P16473)
T1 construct: expressed in transfected cells
Test: Homogeneous Time Resolved Fluorescence (HTRF) cAMP assay, TSHR cell line
Assay type: cell-based
Details: for Maximum Activity compared to TSH: 100% activity = response of 30 mU/ml TSH, 0% = DMSO control, in %; for AC50: HTRF cAMP, TSHR cell line, 30 minute incubation, read-out: AC50; for Emax: read-out: Maximum Activity compared to TSH, 100% activity = response of 30 mU/ml TSH, 0% = DMSO control
Source text: Generation of Stable Cell-Lines Expressing TSHR, LHCGR or FSHR.
cDNA for human TSHR was amplified by PCR from hTSHR-pSVL (1) and inserted into the pcDNA3.1(−)/hygromycin vector using restriction sites XhoI and BamHI. cDNA for human LHCGR was amplified by PCR from hLHR-pGS5 (2) and was inserted into the pcDNA3.1(+)/hygromycin vector using restriction sites BamHI and XhoI. The FSHR cDNA in pcDNA3.1 was obtained from the Missouri S&T cDNA Resource Center (www.cDNA.org) and was subcloned into the pcDNA3.1(−)/hygromycin vector. Constructs were confirmed by sequencing (MWG Biotech). HEK-EM 293 cells were transfected with the cDNA of TSHR, LHCGR or FSHR using FuGENE 6 Transfection reagent (Roche Diagnostics) according to the manufacturer's protocol. Two days after transfection cells were passaged and grown in Dulbecco's modified Eagle's Medium (DMEM) supplemented with 10% fetal bovine serum, 100 units/ml penicillin and 10 μg/ml streptomycin (Life Technologies Inc.) and with hygromycin (250 μg/ml) as a selection marker. After 7 to 10 days hygromycin-resistant clones were selected, and after a few days of further growth submitted for a cAMP assay to identify clones that stably express the appropriate receptor. Cell Culture. Cells stably expressing TSHR, LHCGR or FSHR and parental HEK 293 cells were maintained in DMEM medium containing 10% FBS, 100 units/ml Penicillin, 100 μg/ml Streptomycin, at 37° C. in 5% CO2. For the cells lines stably expressing TSHR, LHCGR or FSHR, additional 250 μg/ml Hygromycin was added during the cell culture. The cells were seeded at a density of 3 to 4 million cells in a T175 flask containing 35 ml of media and were allowed to grow for 3 days to reach 80-90% confluence. A flask of HEK 293 cells at this density generally yielded 30 million cells total. Homogeneous Time Resolved Fluorescence (HTRF) cAMP Assay. Compounds were assayed using a HTRF cAMP detection kit (Cisbio, Bedford, Mass.) on both TSHR cell line and parental cell line. Briefly, 750 cells were plated in 2.5 μl/well of complete media (DMEM containing 10% FCS) in 1536 well solid bottom white plates and 20 nl/well compound in DMSO solution or controls was added. Following 30 minute incubation at room temperature, 2.5 μl/well of labeled d2 cAMP and 2.5 μl/well of anti-cAMP antibody (both diluted 1:20 in lysis buffer) were added to each well using a flying reagent dispenser (Aurora Discovery, San Diego). Plates were measured using the Envision plate reader (PerkinElmer, Boston, Mass.) with excitation at 330 nm and emissions of 615 nm and 660 nm. Compound Preparation. […] Data Analysis. […] The EC50 values of compounds were calculated from the concentration-response curves by nonlinear regression analysis using Prism software (GraphPad Software, San Diego, Calif.). Confirmatory cAMP Assay and Test for Selectivity Towards TSHR 50,000 cells/well were plated in complete media (DMEM containing 10% FCS) in 96 well plates. […] Following aspiration of the medium after incubation with compounds, cells were lysed using lysis buffer of the cAMP-Screen Direct™ System (Applied Biosystems, Cat # CSD200). The cAMP content of the cell lysate was determined using the manufacturer's protocol. […] Below is a List of Compounds that were Assayed via the Homogeneous Time Resolved Fluorescence (HTRF) cAMP Assay.

T1 sequence (P16473 21-764): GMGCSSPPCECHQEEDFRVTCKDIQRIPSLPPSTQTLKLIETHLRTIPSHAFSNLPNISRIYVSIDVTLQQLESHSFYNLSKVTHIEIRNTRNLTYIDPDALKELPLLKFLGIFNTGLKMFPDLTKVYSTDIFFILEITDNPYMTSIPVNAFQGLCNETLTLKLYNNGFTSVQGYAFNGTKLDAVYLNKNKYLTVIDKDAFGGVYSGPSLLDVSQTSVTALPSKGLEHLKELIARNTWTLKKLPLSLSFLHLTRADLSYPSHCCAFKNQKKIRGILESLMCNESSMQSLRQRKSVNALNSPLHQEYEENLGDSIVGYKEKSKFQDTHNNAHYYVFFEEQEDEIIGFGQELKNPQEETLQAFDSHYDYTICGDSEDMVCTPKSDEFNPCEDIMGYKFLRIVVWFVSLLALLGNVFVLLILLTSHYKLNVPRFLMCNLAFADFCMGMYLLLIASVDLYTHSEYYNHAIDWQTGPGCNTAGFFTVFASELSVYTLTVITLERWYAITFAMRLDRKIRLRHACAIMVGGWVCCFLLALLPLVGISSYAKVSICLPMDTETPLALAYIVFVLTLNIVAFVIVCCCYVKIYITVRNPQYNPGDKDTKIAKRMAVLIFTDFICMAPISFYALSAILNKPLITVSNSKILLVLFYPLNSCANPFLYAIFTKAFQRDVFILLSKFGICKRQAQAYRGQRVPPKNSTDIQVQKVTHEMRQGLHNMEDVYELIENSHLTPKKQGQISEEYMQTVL

SMILES | Maximum Activity compared to TSH | AC50 | Emax
COc1ccc(-c2nc3ccccc3c(=O)n2Cc2ccccc2)cc1COc1ccc(NC(C)=O)cc1 [Structure 64] | 70.53 | 7.94 µM | –
COc1ccc(CN(Cc2ccccc2)C(=O)c2ccccc2O)cc1COc1ccc(NC(C)=O)cc1 [Structure 65] | – | 14.1 µM | 51.6%
COc1ccc(C2Nc3ccc(NC(=O)COC(C)=O)cc3C(=O)N2Cc2ccccc2)cc1COc1ccc(NC(C)=O)cc1 (stereo not drawn) [Structure 66] | 64.52 | 8.91 µM | –
COc1ccc(CN(Cc2ccccc2)C(=O)C2CC2)cc1COc1ccc(NC(C)=O)cc1 [Structure 68] | – | 22.4 µM | 74.8%
COc1ccc(CN(Cc2ccccc2)C(=O)c2ccncc2)cc1COc1ccc(NC(C)=O)cc1 [Structure 69] | 44.83 | 25.1 µM | –
COc1ccc(CN(Cc2ccccc2)C(=O)c2cccc(C#N)c2)cc1COc1ccc(NC(C)=O)cc1 [Structure 71] | 44.19 | 7.94 µM | –
COc1ccc(C2Nc3ccccc3C(=O)N2Cc2ccc(Cl)cc2)cc1COc1ccc(NC(C)=O)cc1 (stereo not drawn) [Structure 72] | – | 3.98 µM | 55.2%
COc1ccc(CN(Cc2ccccc2)C(=O)c2ccc(O)cc2)cc1COc1ccc(NC(C)=O)cc1 [Structure 73] | 75.04 | 28.2 µM | –
COc1ccc(CN(Cc2ccccc2)C(=O)c2cccc(C#N)c2)cc1COc1ccc(NC(C)=O)cc1 [Structure 75] | 70.09 | 20 µM | –
COc1ccc(C2Nc3ccccc3C(=O)N2Cc2ccc(Cl)cc2)cc1COc1ccc(NC(C)=O)cc1 (stereo not drawn) [Structure 77] | 68.63 | 3.16 µM | –
COc1ccc(-c2nc3ccc(NC(=O)CO)cc3c(=O)n2Cc2cccc(Cl)c2)cc1COc1ccc(NC(C)=O)cc1 [Structure 80] | – | 22.4 µM | 40%
COc1ccc(CN(Cc2ccccc2)C(=O)C2CC2)cc1COc1ccc(NC(C)=O)cc1 [Structure 81] | 76.98 | 15.8 µM | –
COc1ccc(-c2nc3ccccc3c(=O)n2Cc2ccccc2)cc1CNc1ccc(CC(C)=O)cc1 [Structure 82] | – | 25.1 µM | 59%
COc1ccc(C2Oc3ccc(NC(C)=O)cc3C(=O)N2Cc2cccc(Cl)c2)cc1COc1ccc(NC(C)=O)cc1 (stereo not drawn) [Structure 83] | – | 7.08 µM | 79%

The remaining lines, values ahead:

Maximum Activity compared to TSH | AC50 | Emax | SMILES
302.11 | 7.94 µM | – | COc1ccc(C2Nc3cccc(O)c3C(=O)N2Cc2ccccc2)cc1COc1ccc(NC(C)=O)cc1 (stereo not drawn) [Structure 61]
82.36 | 7.94 µM | – | COc1ccc(C2Nc3ccccc3C(=O)N2CCc2ccccc2)cc1COc1ccc(NC(C)=O)cc1 (stereo not drawn) [Structure 67]
53.96 | 10 µM | – | COc1ccc(C2Nc3ccccc3C(=O)N2CCc2ccccc2)cc1COc1ccc(NC(C)=O)cc1 (stereo not drawn) [Structure 70]
– | 2.82 µM | 36% | COc1ccc(C2Nc3ccccc3C(=O)N2Cc2ccc(-c3ccccc3)cc2)cc1COc1ccc(NC(C)=O)cc1 (stereo not drawn) [Structure 74]
64.77 | 6.31 µM | – | COc1ccc(C2Cc3ccccc3C(=O)N2Cc2ccccc2)cc1COc1ccc(NC(C)=O)cc1 (stereo not drawn) [Structure 76]
66.16 | 8.91 µM | – | COc1ccc(C2Oc3ccccc3C(=O)N2Cc2ccccc2)cc1COc1ccc(NC(C)=O)cc1 (stereo not drawn) [Structure 78]
61.52 | 1.78 µM | – | COc1ccc(C2Nc3ccccc3C(=O)N2Cc2cccc(-c3ccccc3)c2)cc1COc1ccc(NC(C)=O)cc1 (stereo not drawn) [Structure 79]
47.53 | 7.94 µM | – | COc1ccc(C2N(Cc3ccccc3)C(=O)c3ccccc3N2C)cc1COc1ccc(NC(C)=O)cc1 (stereo not drawn) [Structure 84]
54.95 | – | – | COc1ccc([C@H]2[C@H](c3ccccc3)C(=O)N2Cc2ccccc2)cc1COc1ccc(NC(C)=O)cc1 [Structure 85]
